Measured values from paper PMC12024540, “Peptide-Based Regulation of TNF-α-Mediated Cytotoxicity” (Biomolecules, 2025).
Where two headings read alike, the source gives them in different places. Where no end group is shown, it is not given here.

Tests used:
[1] = target: rhTNF-α (Homo sapiens, UniProt P01375); assay: Microscale thermophoresis (MST) binding to labeled rhTNF-α; conditions: labeled rhTNF-α 20 nM, PBS, mean ± SD of three replicates
Protocol: MST was performed using a Monolith NT.115 Pico instrument (NanoTemper Technologies, Munich, Germany). In this technique, thermophoresis applied by irradiation with an infrared (IR) laser diode disrupts a ligand-target binding interaction that has equilibrated. The concentration of fluorescent molecules can be altered by the direct movement of molecules within a temperature gradient. The effect on the fluorescence signal is monitored continuously over time.
Experiments were performed using the Monolith Protein Labeling Kit RED-NHS 2nd Generation and Monolith NT.115 Premium Capillaries at Pico-RED 80% excitation power and medium MST power with thermophoresis. Mixtures of labeled molecules and functional peptides or TNFR1 were prepared in PBS. Labeled molecules were maintained at 20 nM for the peptide binding experiments, and the ligand concentrations varied according to the molecule with 16 serial dilutions. The peptide-labeled molecule mixture was loaded into the glass capillaries after 20 min incubation in the dark. Results were analyzed using M.O. Affinity Analysis v.2.3 software.

[2] = test system: L929 cells; assay: MTT cytotoxicity of peptides on L929 cells; format: cell-based, mouse; conditions: at 10,000 nM (10 μM)
Protocol: (§1) The TNF-α neutralizing activity of designed peptides and adalimumab molecules was compared with cell-based bioactivity assays. L929 cells were cultured in DMEM supplemented with 10% FBS and 1% P/S in a humidified 5% CO2 incubator at 37 °C [43].
Cytotoxicity of peptides was determined using the 3-(4,5-dimethylthiazol-2-yl)-2,5 diphenyltetrazolium bromide (MTT) cell proliferation assay. Briefly, 3 × 10^4 cells in 100 μL were seeded into 96-well tissue culture plates and incubated at 37 °C in a 5% CO2 incubator for 24 ± 2 h. Peptide concentrations were diluted from 1 pM to 10 μM and measured in triplicate. The following kit protocol and absorbance were measured at 550 nm and 690 nm using a microplate reader (Gen5 Synergy HT BioTek, Winooski, VT, USA).

[3] = test system: L929 cells; format: cell-based, mouse; conditions: 1 μM with TNF-α (1 ng/mL) and actinomycin D, microscopy
Protocol: (§2) In the TNF-α neutralization test, 3 × 10^4 cells in 100 μL were seeded into 96-well tissue culture plates and incubated at 37 °C in a 5% CO2 incubator for 24 ± 2 h. After incubation, cells were stimulated with 2 μg/mL actinomycin D and 1 ng/mL TNF-α in the presence of diluted concentrations of adalimumab and functional peptides ranging from 1 pM to 10 μM for 24 ± 2 h. […] TNF-α neutralizing activity was also examined by microscopy in a 24-well plate. Both the cytotoxicity effect and neutralizing activity of the OB1 peptide were visually examined by fluorescence microscopy (Zeiss AxioVert A, Oberkochen, Germany). OB1 and adalimumab were administered at a concentration of 1 μM with 1 ng/mL TNF-α.

[4] = test system: TNF-α-induced L929 cell death; assay: TNF-α neutralization test (TNF-α-induced cytotoxicity, MTT) on L929 cells; format: cell-based, mouse
Protocol: as §1, §2

[5] = target: TNF-α; conditions: peptide from T7 phage display library; cited from earlier work
Excerpt: Peptide-based TNF-α inhibition has garnered attention in recent years, as studies have shown that peptides may help treat inflammatory diseases. In a study conducted in 2023, a nine amino acid-long peptide targeting TNF-α was discovered using a T7 phage display library. […] OB1 also attenuated TNF-α-induced cell death based on morphological examination (Figure 8). […] Thus, C87 is used as a positive control in many TNF-α inhibitor studies.

Chain of rhTNF-α (P01375 77-233 limits assumed): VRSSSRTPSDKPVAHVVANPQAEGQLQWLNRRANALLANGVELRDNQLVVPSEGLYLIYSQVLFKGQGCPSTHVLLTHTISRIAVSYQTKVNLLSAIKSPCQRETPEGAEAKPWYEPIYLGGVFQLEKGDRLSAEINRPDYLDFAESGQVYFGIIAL

| Substance | Kd [1] | survival rate in TNF-α neutralization ([4]; 2 h, 10000 nM) | also measured |
| --- | --- | --- | --- |
| KRWSRYFWVDMTGTR-NH2 [OB8] | 3890 ± 4540 nM |  | cytotoxicity (in words) [2]: non-toxic |
| Adalimumab | 0.0211 ± 0.0036 nM |  | cell survival by morphology with TNF-α and actinomycin D [3]: enhanced cell survival; IC50 [4]: 3.85 nM; survival rate in TNF-α neutralization ([4]; L929 cells, 10,000 nM, 1 ng/mL TNF-α and actinomycin D): ~80% |
| KGGGSGGGSGGGSRKEMGQV-NH2 [OB2] | 46.7 nM | ~80% |  |
| ACHAWAPTR [pep2, nine amino acid-long peptide targeting TNF-α from a T7 phage display library] |  |  | Kd [5]: 5140 nM |
| KGGGSGGGSHIHDDLLRYYGW-NH2 [OB1] | 300 nM | ~80% | IC50 ([4]; mouse): 4.6 nM |
